Assay results published in patent US12410191B2, “Macrolide derivatives, preparation method and application thereof” (ZHEJIANG HISUN PHARMACEUTICAL CO., LTD., priority 2019, dated 2025).
Where two headings read alike, the source gives them in different places.

Experiments:
[1] = amide bond, pentafluorophenyl diphenylphosphinate (FDPP), dichloromethane, 25.0 °C
[2] = Pharmacokinetic study on ICR mice; format: in vivo
Procedure: ICR mice, male, 29.0 g to 33.8g, purchased from Beijing Charles River Laboratory Animal Technology Co., Ltd.
Intravenous injection group: an appropriate amount of drug was weighed, and added with mixed solvent (DMA: 30% Solutol HS-15: Saline=10:10:80 (v/v/v)) to prepare the drug with a final concentration of 0.2 mg/mL.
Oral gavage administration group: an appropriate amount of drug was weighed, added with an appropriate amount of sodium carboxymethyl cellulose (CMC-Na, containing 0.5% Tween 80), vortex shaked, and ultrasonically prepared into […] suspension.
For ICR mice, each compound to be tested was divided into an intravenous injection group (9 mice in each group) and an intragastric group (9 mice in each group). The ICR mice were fasted overnight and then administered by orbital intravenous injection (administration dose of 1 mg/kg, and administration volume of 5 mL/kg) and administered by intragastric injection (administration dose of 5 mg/kg, and administration volume of 10 mL/kg), and ate 4 hours after administration. 3. Operation
About 0.2 mL of blood was collected via jugular vein before administration and 0.083 hour, 0.25 hour, 0.5 hour, 1 hour, 2 hours, 4 hours, 8 hours, 12 hours and 24 hours after administration, and heparin sodium was used for anticoagulation. The collected blood samples were placed on ice, and plasma was separated by centrifugation (centrifugation condition: 1500 g, 10 minutes). The collected plasma was stored at −40° C. to −20° C. before analysis.
LC-MS/MS was used to determine the contents of different compounds to be tested in mouse plasma after intravenous injection and intragastric administration.

Molecule `C[C@H]1Nc2ccn3ncc(c3n2)C(=O)NC[C@]2(C)Cc3cc(F)cc1c3O2` has a ring closure, yield of all isomers ([1]; from C[C@@H](Nc1ccn2ncc(C(=O)O)c2n1)c1cc(F)cc2c1O[C@](C)(CN)C2, N,N-diisopropylethylamine, 231.0 mM) of 17.6%.

With `C[C@H]1Nc2ccn3ncc(c3n2)C(=O)NC[C@@]2(C)Cc3cc(F)cc1c3O2` [Example 8, (3R,11R)-6-fluoro-3,11-dimethyl-10-oxa-2,13,17,18,21-pentaazapentacyclo[13.5.2.1^8,11.0^4,9.0^18,22]tricosa-1(21),4,6,8,15(22),16,19-heptaen-14-one] the “bioavailability relative to repotrectinib” value [2] was 4.1 times, the “AUC0-∞ relative to repotrectinib” value ([2]; 5 mg/kg oral) was 10.6 times and the “Cmax relative to repotrectinib” value ([2]; 5 mg/kg oral) was 14.7 times. The ring closure, yield of all isomers ([1]; from C[C@@H](Nc1ccn2ncc(C(=O)O)c2n1)c1cc(F)cc2c1O[C@@](C)(CN)C2, N,N-diisopropylethylamine, 172.0 mM) was 26.3%.

`C[C@H]1Nc2ccn3ncc(c3n2)C(=O)NCC[C@@]2(C)Cc3cc(F)cc1c3O2` gave a ring closure, yield of all isomers ([1]; from C[C@@H](Nc1ccn2ncc(C(=O)O)c2n1)c1cc(F)cc2c1O[C@@](C)(CCN)C2, N,N-diisopropylethylamine, 131.0 mM) of 18.2%.

For `C[C@H]1Nc2ccn3ncc(c3n2)C(=O)NCCC2=Cc3cc(F)cc1c3O2`, the ring closure, yield of all isomers ([1]; from C[C@@H](Nc1ccn2ncc(C(=O)O)c2n1)c1cc(F)cc2cc(CCN)oc12, DIPEA, 172.8 mM, 16.0 h) was 25.4%.

`C[C@H]1Nc2ccn3ncc(c3n2)C(=O)NC[C@@H]2COc3cc(F)cc1c3O2` showed a ring closure, yield of all isomers ([1]; from C[C@@H](Nc1ccn2ncc(C(=O)O)c2n1)c1cc(F)cc2c1O[C@H](CN)CO2, DIPEA, 215.1 mM, 16.0 h) of 42%.

In the case of `C[C@H]1Nc2ccn3ncc(c3n2)C(=O)NCC[C@H]2Cc3cc(F)cc1c3O2`, the ring closure, yield of all isomers ([1]; from C[C@@H](Nc1ccn2ncc(C(=O)O)c2n1)c1cc(F)cc2c1OC(CCN)C2, DIPEA, 33.0 mM, 16.0 h, 2 steps) is reported as 23.1%.

Molecule `C[C@H]1Nc2ccn3ncc(c3n2)C(=O)NCC2(C)Cc3cc(F)cc1c3O2` (stereo partly shown) has a ring closure, yield of all isomers ([1]; from C[C@@H](Nc1ccn2ncc(C(=O)O)c2n1)c1cc(F)cc2c1OC(C)(CN)C2, DIPEA, 154.8 mM, 16.0 h) of 5.9%.
